Solubility and EC50 data for 15 molecules are collected here from US9492436B2, “Azabenzimidazole derivatives” (Boehringer Ingelheim International GmbH, priority 2013, dated 2016).

≈ marks a conversion by molar mass, not a printed value. A value given as a limit tells only on which side of the number the result lay.

Data set [1] is described as follows: Aqueous solubility (buffer vs acetonitrile/water, 24 h shaking, LC-UV). The data set is classed as physicochemical. The following applies: kinetic from dmso stock, 2.5% DMSO, ">" = more than 90% dissolved. The procedure: The aqueous solubility of the compounds of the invention is determined by comparing the amount dissolved in buffer to the amount in an acetonitrile/water (1/1) solution. Starting from a 10 mM DMSO stock solution aliquots are diluted with acetonitrile/water (1/1) or buffer resp. After 24 h of shaking, the solutions are filtrated and analyzed by LC-UV. The amount dissolved in buffer is compared to the amount in the acetonitrile solution.
Solubility is usually being measured from 0.001 to 0.125 mg/ml at a DMSO concentration of 2.5%. If more than 90% of the compound is dissolved in buffer, the value is marked with “>”.

Data set [2] has as its target T1, AMPK complex 1 (containing alpha1beta1gamma1) (Homo sapiens, UniProt Q13131+Q9Y478).
T1 construct: GST (Glutathion S transferase) (N); made in house; host or cells: baculovirus; virus made in Sf9, expression in High Five cells
The experiment in a line: In vitro AMPK activation assay (ADP-Glo Kinase Assay). The format is biochemical. The following applies: 30 μM ATP, 1 μM peptide, 60 min, room temperature. The text has this: Activated AMPK complex 1 (containing alpha1beta1gamma1) was obtained from baculovirus expression system. The gene encoding AMPK alpha1 was cloned into the pACG2T vector (BD Biosciences) to obtain a N-terminal Glutathion S transferase (GST)-fusion protein. The genes encoding AMPK beta 1 and gamma1 were cloned into the p2Bac dual multiple cloning site vector (Invitrogen) with beta1 under the control of the p10 promoter and gamma1 under the control of the PH promoter. The transfer vectors containing AMPK were co-transfected individually with AcPNV BacMagic-3 DNA (EMD Millipore) in Sf9 cells and the recombinant baculoviruses were harvested after 5 days, followed by 3 rounds of amplification of the virus stock in Sf9 cells. AMPK (alpha1beta1gamma1) was expressed in High Five 5 cells by co-infection of recombinant alpha1 virus and recombinant beta1/gamma1 virus for 72 h at 27° C. Cells were harvested by centrifugation and lysed by 3 freeze/thaw cycles in PBS with 10% glycerol and protease inhibitor cocktail (Roche). After centrifugation AMPK a1b1g1 in the supernatant was captured by immobilized glutathione (GE Healthcare), impurities were washed away with PBS and AMPK alpha1beta1gamma1 was eluted with PBS containing 20 mM reduced gluthathione. The protein buffer was then exchanged to PBS with 10% glycerol and protein concentration was determined by UV absorbance.
The white 384-well Optiplates (cat.no. 6007299) were purchased from PerkinElmer. The V9101 ADP-Glo Kinase Assay and ultra pure ATP (V915A) was purchased from Promega. The substrate for AMPK (NH2-HMRSAMSGLHLVKRR_CONH2) was purchased from Upstate (12-355).
Compounds were tested in either serial dilutions or single dose concentrations. The serial compound dilutions were prepared in 100% DMSO automatically. The final DMSO concentration in the assay was 0.1%.
The Compound Stock Solutions were 10 mM in 100% DMSO. The compounds were solubilised at room temperature.
In the 384-well plates 1.25 ul of test compound in assay buffer was mixed with 1.25 ul of AMPK and 1.25 μl of the peptide (final concentration of 1 μM) and 1.25 μl of ATP (final concentration of 30 μM), both dissolved in assay buffer. This step was followed by an incubation time of 60 min. Then 5 μl of ADP Glo Reagent was added. This was followed by 40 min of incubation. Then 10 μl of Kinase Detection Reagent was admixed. The plates were sealed and after an incubation period of 30 min, the luminescence signal was measured in an Envision reader. All incubation steps were accomplished at room temperature.
Each assay microtiter plate contained wells with vehicle controls instead of compound (0.1% DMSO in water) as reference for the low signal (100% CTL, low signal), and wells with serial dilutions of AMP (final 30 μM) as reference for high signals.
The luminescence signal generated was proportional to the ADP concentration produced and was correlated with AMPK activity. The analysis of the data was performed by the calculation of the percentage of ATP consumption of AMPK in the presence of the test compound compared to the consumption of ATP in the presence of AMPK without compound. (RLU(sample)/RLU(low control))*100[RLU=relative luminescence units]
An activator of the AMPK enzyme gave values above 100% CTL.
EC50 values based on dose response curves are calculated with the XIFIT software using the 4 Parameter Logistic Model or Sigmoidal Dose-Response Model.
A general note: ADP-Glo turns the ADP formed in a reaction into a luminescent signal.

T1 sequence (Q13131 whole entry): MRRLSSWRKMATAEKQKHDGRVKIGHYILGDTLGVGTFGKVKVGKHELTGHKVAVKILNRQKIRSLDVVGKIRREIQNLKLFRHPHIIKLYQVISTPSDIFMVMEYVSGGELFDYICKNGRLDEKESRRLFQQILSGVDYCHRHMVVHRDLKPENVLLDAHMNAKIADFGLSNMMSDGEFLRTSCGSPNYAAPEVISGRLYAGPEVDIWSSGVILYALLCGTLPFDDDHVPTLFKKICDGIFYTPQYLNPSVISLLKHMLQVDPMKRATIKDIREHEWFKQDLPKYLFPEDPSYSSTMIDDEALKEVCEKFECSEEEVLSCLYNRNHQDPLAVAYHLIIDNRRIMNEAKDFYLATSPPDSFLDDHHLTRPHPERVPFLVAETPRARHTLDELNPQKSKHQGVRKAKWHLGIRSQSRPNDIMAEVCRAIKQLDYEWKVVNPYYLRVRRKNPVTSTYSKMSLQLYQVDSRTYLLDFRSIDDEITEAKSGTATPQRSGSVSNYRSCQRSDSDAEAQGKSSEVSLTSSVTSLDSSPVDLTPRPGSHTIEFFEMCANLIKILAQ
T1 sequence (Q9Y478 whole entry): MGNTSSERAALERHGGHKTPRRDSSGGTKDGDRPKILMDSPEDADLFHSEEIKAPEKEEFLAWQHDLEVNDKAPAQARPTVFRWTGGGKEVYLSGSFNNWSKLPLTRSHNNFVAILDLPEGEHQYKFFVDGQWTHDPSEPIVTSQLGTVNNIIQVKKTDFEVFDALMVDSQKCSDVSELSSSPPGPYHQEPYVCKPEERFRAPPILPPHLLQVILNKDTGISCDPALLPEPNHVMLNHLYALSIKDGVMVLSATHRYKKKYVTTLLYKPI
T1 sequence (P54619 whole entry partner): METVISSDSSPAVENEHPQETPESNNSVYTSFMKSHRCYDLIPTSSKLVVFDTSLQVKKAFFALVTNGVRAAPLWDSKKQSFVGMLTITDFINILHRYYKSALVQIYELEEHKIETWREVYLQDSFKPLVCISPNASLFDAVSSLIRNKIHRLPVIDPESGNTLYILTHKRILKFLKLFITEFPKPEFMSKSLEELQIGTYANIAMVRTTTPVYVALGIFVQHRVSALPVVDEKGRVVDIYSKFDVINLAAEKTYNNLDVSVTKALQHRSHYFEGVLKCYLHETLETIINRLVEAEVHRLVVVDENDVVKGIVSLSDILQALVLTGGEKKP

In the case of `CS(C)(=O)=Nc1cnc(-c2ccc(-c3nc4[nH]c(O[C@@H]5CO[C@H]6[C@@H]5OC[C@H]6O)nc4cc3Cl)cc2)nc1` [Example 34, N-(2-{4-[6-Chloro-2-((3R,3aR,6R,6aR)-6-hydroxyhexahydrofuro[3,2-b]furan-3-yloxy)-3H-imidazo[4,5-b]pyridin-5-yl]-phenyl}-pyrimidin-5-yl)-S,S-dimethylsulfoximide], the solubility (usually the dissolved amount per volume that the medium holds) at 24 h amounted to 4 µg/mL (≈ 7.37 µM) in data set [1] (pH 2.2 buffer), 5 µg/mL (≈ 9.21 µM) in data set [1] (pH 4.5 buffer) and 13 µg/mL (≈ 23.9 µM) in data set [1] (pH 6.8 buffer). The EC50 (usually the midpoint of the concentration-response curve) in data set [2] worked out at 3 nM.
In the same order, the values of `CS(C)(=O)=Nc1cc(-c2ccc(-c3nc4[nH]c(O[C@@H]5CO[C@H]6[C@@H]5OC[C@H]6O)nc4cc3Cl)cc2)ccn1` [Example 36, N-(4-{4-[6-Chloro-2-((3R,3aR,6R,6aR)-6-hydroxyhexahydrofuro[3,2-b]furan-3-yloxy)-3H-imidazo[4,5-b]pyridin-5-yl]-phenyl}-pyridin-2-yl)-S,S-dimethylsulfoximide] are 99 µg/mL (≈ 183 µM), less than 1 µg/mL, less than 1 µg/mL and 15 nM.
The corresponding values for `CS(C)(=O)=Nc1ccc(-c2ccc(-c3nc4[nH]c(O[C@@H]5CO[C@H]6[C@@H]5OC[C@H]6O)nc4cc3Cl)cc2)cn1` [Example 22, N-(5-(4-(6-Chloro-2-((3R,3aR,6R,6aR)-6-hydroxyhexahydrofuro[3,2-b]furan-3-yloxy)-3H-imidazo[4,5-b]pyridin-5-yl)phenyl)pyridin-2-yl)-S,S-dimethylsulfoximide] are less than 80 µg/mL, greater than 7 µg/mL, less than 1 µg/mL and 45 nM.
In the same order, the values of `CS(C)(=O)=NCC1CCN(c2ccc(-c3nc4[nH]c(O[C@@H]5CO[C@H]6[C@@H]5OC[C@H]6O)nc4cc3Cl)cc2)CC1` [Example 31, N-(1-(4-(6-Chloro-2-((3R,3aR,6R,6aR)-6-hydroxyhexahydrofuro[3,2-b]furan-3-yloxy)-3H-imidazo[4,5-b]pyridin-5-yl)phenyl)piperidin-4-ylmethyl)-S,S-dimethylsulfoximide] are greater than 122 µg/mL, 105 µg/mL (≈ 187 µM), 89 µg/mL (≈ 158 µM) and 17 nM.
For `CS(C)(=O)=NCc1ccc(-c2ccc(-c3nc4[nH]c(O[C@@H]5CO[C@H]6[C@@H]5OC[C@H]6O)nc4cc3Cl)cc2)cn1` [Example 51, N-(5-{4-[6-Chloro-2-((3R,3aR,6R,6aR)-6-hydroxyhexahydrofuro[3,2-b]furan-3-yloxy)-3H-imidazo[4,5-b]pyridin-5-yl]-phenyl}-pyridin-2-ylmethyl)-S,S-dimethylsulfoximide], the solubility at 24 h in data set [1] (pH 2.2 buffer) is greater than 146 µg/mL; in data set [1] (pH 4.5 buffer), 28 µg/mL (≈ 50.4 µM); in data set [1] (pH 6.8 buffer) it was 2 µg/mL (≈ 3.6 µM). Also, the 50% effective concentration (EC50) in data set [2] came out at 92 nM.
Turning to `CS(=N)(=O)c1ccc(-c2ccc(-c3nc4[nH]c(O[C@@H]5CO[C@H]6[C@@H]5OC[C@H]6O)nc4cc3Cl)cc2)nc1` (stereo partly drawn) [Example 27], the solubility at 24 h in data set [1] (pH 2.2 buffer) was 77 µg/mL (≈ 146 µM); in data set [1] (pH 4.5 buffer) it was less than 1 µg/mL; in data set [1] (pH 6.8 buffer), less than 1 µg/mL. Further, the response in data set [2] was half-maximal at 4 nM (EC50).
With `CN=S(C)(=O)c1ccc(-c2ccc(-c3nc4[nH]c(O[C@@H]5CO[C@H]6[C@@H]5OC[C@H]6O)nc4cc3Cl)cc2)nc1` (stereo partly drawn) [Example 28, (3R,3aR,6R,6aR)-6-(6-Chloro-5-(4-(5-(N,S-dimethylsulfonimidoyl)pyridin-2-yl)phenyl)-3H-imidazo[4,5-b]pyridin-2-yloxy)hexahydrofuro[3,2-b]furan-3-ol], the solubility at 24 h is 92 µg/mL (≈ 170 µM) in data set [1] (pH 2.2 buffer), less than 1 µg/mL in data set [1] (pH 4.5 buffer) and less than 1 µg/mL in data set [1] (pH 6.8 buffer). The molecule further gave a concentration giving a half-maximal response (EC50) in data set [2] of 2 nM.
As to `CS(=N)(=O)c1ccc(-c2ccc(-c3nc4[nH]c(O[C@@H]5CO[C@H]6[C@@H]5OC[C@H]6O)nc4cc3Cl)cc2)cc1` (stereo partly drawn) [Example 23, (3R,3aR,6R,6aR)-6-(6-Chloro-5-(4′-(S-methylsulfonimidoyl)biphenyl-4-yl)-3H-imidazo[4,5-b]pyridin-2-yloxy)hexahydrofuro[3,2-b]furan-3-ol], the solubility at 24 h in data set [1] (pH 2.2 buffer) came to 69 µg/mL (≈ 131 µM); in data set [1] (pH 4.5 buffer), 2 µg/mL (≈ 3.8 µM); in data set [1] (pH 6.8 buffer), 1 µg/mL (≈ 1.9 µM). The same molecule gave a concentration giving a half-maximal response (EC50) in data set [2] of 10 nM.
The corresponding values for `CS(=O)(=NC#N)c1ccc(-c2ccc(-c3nc4[nH]c(O[C@@H]5CO[C@H]6[C@@H]5OC[C@H]6O)nc4cc3Cl)cc2)cc1` (stereo partly drawn) [Example 7, S-(4′-(6-Chloro-2-((3R,3aR,6R,6aR)-6-hydroxyhexahydrofuro[3,2-b]furan-3-yloxy)-3H-imidazo[4,5-b]pyridin-5-yl)biphenyl-4-yl)-S-methyl-N-cyano-sulfoximide] are 15 µg/mL (≈ 27.2 µM), less than 1 µg/mL, less than 1 µg/mL and 1 nM.
In the same order, the values of `CS(C)(=O)=Nc1ccc(-c2ccc(-c3nc4[nH]c(O[C@@H]5CO[C@H]6[C@@H]5OC[C@H]6O)nc4cc3Cl)cc2)nn1` [Example 50, N-(6-{4-[6-Chloro-2-((3R,3aR,6R,6aR)-6-hydroxyhexahydrofuro[3,2-b]furan-3-yloxy)-3H-imidazo[4,5-b]pyridin-5-yl]-phenyl}-pyridazin-3-yl)-S,S-dimethylsulfoximide] are greater than 128 µg/mL, greater than 117 µg/mL, 88 µg/mL (≈ 162 µM) and 304 nM.
Molecule `CN=S1(=O)CCN(c2ccc(-c3nc4[nH]c(O[C@@H]5CO[C@H]6[C@@H]5OC[C@H]6O)nc4cc3Cl)cc2)CC1` [Example 5] yielded an EC50 in data set [2] of 62 nM.
Same read-out and setting: the value for `CS(C)(=O)=Nc1ccc(-c2nc3[nH]c(O[C@@H]4CO[C@H]5[C@@H]4OC[C@H]5O)nc3cc2Cl)cc1` [Example 1] was 275 nM.
Take `CS(C)(=O)=NCc1cccc(-c2ccc(-c3nc4[nH]c(O[C@@H]5CO[C@H]6[C@@H]5OC[C@H]6O)nc4cc3Cl)cc2)n1` [Example 35, N-(2-(4-(6-Chloro-2-((3R,3aR,6R,6aR)-6-hydroxyhexahydrofuro[3,2-b]furan-3-yloxy)-3H-imidazo[4,5-b]pyridin-5-yl)phenyl)pyridin-6-ylmethyl)-S,S-dimethylsulfoximide]: in data set [2], the EC50 is 87 nM.
For the molecule `CS(=N)(=O)Cc1ccc(-c2ccc(-c3nc4[nH]c(O[C@@H]5CO[C@H]6[C@@H]5OC[C@H]6O)nc4cc3Cl)cc2)cc1` (stereo partly drawn) [Example 52, (3R,3aR,6R,6aR)-6-(6-Chloro-5-(4′-(S-methylsulfonimidoylmethyl)biphenyl-4-yl)-3H-imidazo[4,5-b]pyridin-2-yloxy)hexahydrofuro[3,2-b]furan-3-ol], the solubility at 24 h in data set [1] (pH 2.2 buffer) was 42 µg/mL (≈ 77.6 µM); in data set [1] (pH 4.5 buffer), less than 1 µg/mL; in data set [1] (pH 6.8 buffer), less than 1 µg/mL. In data set [2], this molecule displayed a concentration giving a half-maximal response (EC50) of 3 nM.
With `CN=S(C)(=O)c1ccc(N2CCN(c3nc4[nH]c(O[C@@H]5CO[C@H]6[C@@H]5OC[C@H]6O)nc4cc3Cl)CC2)cc1` (stereo partly drawn) [Example 29, (3R,3aR,6R,6aR)-6-(6-Chloro-5-(4-(4-(N,S-dimethylsulfonimidoyl)phenyl)piperazin-1-yl)-3H-imidazo[4,5-b]pyridin-2-yloxy)hexahydrofuro[3,2-b]furan-3-ol], the half-maximal effective concentration (EC50) in data set [2] came to 725 nM.
